Experimental findings from patent US10183021B2, “sGC stimulators” (Ironwood Pharmaceuticals, Inc., priority 2013, dated 2019) are described below.

Some results are limits rather than exact numbers.

Experiment [1] concerns the target T1, soluble guanylate cyclase (sGC) (Homo sapiens (Human), UniProt Q02108+Q02153). Put plainly: sGC-HEK-cGMP assay, new protocol with DETA-NONOate, LC/MS detection (Example 2C). The settings on record: read-out: Absolute EC50 (uM) - binned. Format: cell-based.
Experiment [2] deals with T1, soluble guanylate cyclase (sGC). The experiment can be described thus: sGC-HEK-cGMP assay with SNP incubation, LC/MS detection (Example 2A). Format: cell-based. The settings on record: HEK293 cells, 10 μM SNP, LC/MS detection; for Emax: 100% = BAY 41-2272 at 10 μM, read-out: HEK assay Emax - unconstrained (%). In short, it runs like this: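 HEK293 cells with endogenous sGC were pretreated 15 min at 37 °C with 0.5 mM IBMX, then exposed 10 min at 37 °C to compound (added from 0.0001–30 μM solutions) plus SNP (from 10 μM solution). After 0.1 M HCl lysis, cGMP was quantified by LC/MS against a standard curve.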

[3] abbreviates: top of curve not fitted to 100%, read-out: HEK assay EC50 - unconstrained.
Setting [4] is: top of curve fitted to 100%, read-out: HEK assay EC50 - constrained.

As a reminder, the EC50 is the concentration at which the effect is half-maximal. Broadly, the Emax is the greatest response seen or fitted, relative to the assay's reference.

T1 sequence (Q02153 whole entry): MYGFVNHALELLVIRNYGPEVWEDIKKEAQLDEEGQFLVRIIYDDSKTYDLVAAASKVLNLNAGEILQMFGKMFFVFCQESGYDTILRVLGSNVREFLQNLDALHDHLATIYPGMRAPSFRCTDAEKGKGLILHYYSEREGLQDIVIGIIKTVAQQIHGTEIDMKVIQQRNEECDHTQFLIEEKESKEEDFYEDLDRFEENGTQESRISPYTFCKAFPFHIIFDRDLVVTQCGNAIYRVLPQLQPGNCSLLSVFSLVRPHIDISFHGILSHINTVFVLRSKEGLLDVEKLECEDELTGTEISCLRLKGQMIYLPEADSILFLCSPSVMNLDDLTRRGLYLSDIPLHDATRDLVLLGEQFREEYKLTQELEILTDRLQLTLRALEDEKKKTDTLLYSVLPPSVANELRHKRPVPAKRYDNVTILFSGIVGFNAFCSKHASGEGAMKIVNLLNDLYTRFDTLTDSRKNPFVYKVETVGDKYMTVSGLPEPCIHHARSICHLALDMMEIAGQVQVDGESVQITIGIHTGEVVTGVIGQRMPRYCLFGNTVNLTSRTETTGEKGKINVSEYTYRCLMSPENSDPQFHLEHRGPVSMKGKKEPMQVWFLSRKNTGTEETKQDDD
T1 sequence (Q02108 whole entry): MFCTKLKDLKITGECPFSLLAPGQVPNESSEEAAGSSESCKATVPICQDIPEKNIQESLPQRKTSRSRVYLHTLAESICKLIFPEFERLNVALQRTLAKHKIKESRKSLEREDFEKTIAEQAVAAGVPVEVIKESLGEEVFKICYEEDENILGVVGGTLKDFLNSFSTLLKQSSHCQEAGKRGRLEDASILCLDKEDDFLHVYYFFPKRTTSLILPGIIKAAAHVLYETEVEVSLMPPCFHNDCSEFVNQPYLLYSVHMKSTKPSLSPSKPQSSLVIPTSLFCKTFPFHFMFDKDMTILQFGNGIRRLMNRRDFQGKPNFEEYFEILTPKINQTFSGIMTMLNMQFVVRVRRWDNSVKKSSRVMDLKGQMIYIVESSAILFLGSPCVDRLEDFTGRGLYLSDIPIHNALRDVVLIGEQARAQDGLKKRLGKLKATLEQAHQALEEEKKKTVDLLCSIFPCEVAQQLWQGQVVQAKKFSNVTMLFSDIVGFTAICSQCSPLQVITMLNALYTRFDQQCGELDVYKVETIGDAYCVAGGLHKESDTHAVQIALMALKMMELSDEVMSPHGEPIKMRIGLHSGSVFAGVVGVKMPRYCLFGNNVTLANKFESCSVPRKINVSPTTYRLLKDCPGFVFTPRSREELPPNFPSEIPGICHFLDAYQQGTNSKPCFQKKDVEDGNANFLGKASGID

For `O=C(O)[C@H]1C[C@@H](C(F)(F)F)CCN1c1nc(-c2cc(-c3ccon3)n(Cc3ccccc3F)n2)ncc1F` (racemic) [Compound I-452], the results for the EC50 in experiment [1] and in experiment [2] (setting [3]) were under 0.1 µM and 0.1 to 0.5 µM, respectively. The Emax in experiment [2] is 80 to 100%.
Take `O=C(O)[C@H]1C[C@H](C(F)(F)F)CCN1c1nc(-c2cc(-c3ccon3)n(Cc3ccccc3F)n2)ncc1F` (racemic) [Compound I-453]: the concentration giving a half-maximal response (EC50) in experiment [1] lay within 0.101 to 1 µM; in experiment [2] (setting [3]), 1 to 5 µM. Moreover, the Emax in experiment [2] lay in the range of 0 to 10%.
As to `CC1CCCN1c1nc(-c2cc(-c3ccon3)n(Cc3ccccc3F)n2)ncc1F` (stereo not drawn) [Compound I-11], the EC50 fell in the range of 0.101 to 1 µM in experiment [1] and 0.5 to 1 µM in experiment [2] (setting [4]).
As for `O=[N+]([O-])c1cnc(-c2cc(-c3ccon3)n(Cc3ccccc3F)n2)nc1N1CCOCC1` [Compound I-14], the EC50 in experiment [1] was over 1 µM; in experiment [2] (setting [4]) it was over 10 µM.
In the case of `COC1CCCN(c2nc(-c3cc(-c4ccon4)n(Cc4ccccc4F)n3)ncc2F)C1` (stereo not drawn) [Compound I-19], the 50% effective concentration (EC50) is under 0.1 µM in experiment [1] and 1 to 5 µM in experiment [2] (setting [4]).
Regarding `Fc1ccccc1Cn1nc(-c2nccc(N3CCOCC3)n2)cc1-c1ccon1` [Compound I-24], the EC50 in experiment [1] was under 0.1 µM; in experiment [2] (setting [3]) it was 0.1 to 0.5 µM. Besides, in experiment [2], the maximum response (Emax) lay in the range of 40 to 60%.
As for `CC(C)(C)OC(=O)NC1CCN(c2nc(-c3cc(-c4ccon4)n(Cc4ccccc4F)n3)ncc2F)C1` (stereo not drawn) [Compound I-35], the half-maximal effective concentration (EC50) fell in the range of 0.101 to 1 µM in experiment [1] and 0.5 to 1 µM in experiment [2] (setting [3]). For the same compound, in experiment [2], the Emax was in the range of 40 to 60%.
Regarding `Fc1ccccc1Cn1nc(-c2ncc(F)c(NC3CCCNC3)n2)cc1-c1ccon1` (stereo not drawn) [Compound I-39], the EC50 was 0.101 to 1 µM in experiment [1] and 5 to 10 µM in experiment [2] (setting [3]). Further, the Emax in experiment [2] was in the range of 60 to 80%.
With `O=C(O)C1CN(c2nc(-c3cc(-c4ccon4)n(Cc4ccccc4F)n3)ncc2F)C1` [Compound I-53], the EC50 was in the range of 0.101 to 1 µM in experiment [1] and 1 to 5 µM in experiment [2] (setting [4]).
For `CC1C(=O)NCCN1c1nc(-c2cc(-c3ccon3)n(Cc3ccccc3F)n2)ncc1F` (stereo not drawn) [Compound I-54], in that order: under 0.1 µM and 0.1 to 0.5 µM.
Regarding `O=C(O)C1CCN1c1nc(-c2cc(-c3ccon3)n(Cc3ccccc3F)n2)ncc1F` (stereo not drawn) [Compound I-55], the results for the EC50 in experiment [1] and in experiment [2] (setting [4]) were 0.101 to 1 µM and 1 to 5 µM, respectively.
As to `O=C1CN(c2nc(-c3cc(-c4ccon4)n(Cc4ccccc4F)n3)ncc2F)CCN1` [Compound I-59], the EC50 is 0.101 to 1 µM in experiment [1] and over 10 µM in experiment [2] (setting [4]).
In the case of `CC(C)[C@H](Nc1nc(-c2cc(-c3ccon3)n(Cc3ccccc3F)n2)ncc1F)C(=O)O` [Compound I-69, (S)-2-((5-fluoro-2-(1-(2-fluorobenzyl)-5-(isoxazol-3-yl)-1H-pyrazol-3-yl)pyrimidin-4-yl)amino)-3-methylbutanoic acid], the EC50 in experiment [1] fell in the range of 0.101 to 1 µM; in experiment [2] (setting [4]), 0.1 to 0.5 µM; in experiment [2] (setting [3]) it was 0.5 to 1 µM. In addition, the Emax in experiment [2] is 80 to 100%.
For the compound `O=C(O)[C@H](Cc1cc2ccccc2[nH]1)Nc1nc(-c2cc(-c3ccon3)n(Cc3ccccc3F)n2)ncc1F` [Compound I-81], the EC50 in experiment [1] was over 1 µM; in experiment [2] (setting [4]), over 10 µM.
For `O=C(O)C1(Nc2nc(-c3cc(-c4ccon4)n(Cc4ccccc4F)n3)ncc2F)CC1` [Compound I-85], in that order: over 1 µM and over 10 µM.
Regarding `CC(C)C[C@H](Nc1nc(-c2cc(-c3ccon3)n(Cc3ccccc3F)n2)ncc1F)C(=O)O` [Compound I-88], the EC50 fell in the range of 0.101 to 1 µM in experiment [1] and 1 to 5 µM in experiment [2] (setting [3]). Moreover, the maximum response (Emax) in experiment [2] lay within 60 to 80%.
`O=C(O)[C@@H]1Cc2ccccc2N1c1nc(-c2cc(-c3ccon3)n(Cc3ccccc3F)n2)ncc1F` [Compound I-90]: the results for the EC50 in experiment [1] and in experiment [2] (setting [3]) were over 1 µM and 5 to 10 µM, respectively. The maximal response (Emax) in experiment [2] was in the range of 40 to 60%.
On to `CC(C)(C)OC(=O)N1CCN(c2nc(-c3cc(-c4ccon4)n(Cc4ccccc4F)n3)ncc2F)C(C(=O)O)C1` (stereo not drawn) [Compound I-101], for which the values for the EC50 in experiment [1] and in experiment [2] (setting [4]) were 0.101 to 1 µM and 5 to 10 µM, respectively.
Regarding `O=C(O)c1cccn1-c1nc(-c2cc(-c3ccon3)n(Cc3ccccc3F)n2)ncc1F` [Compound I-104], the values for the EC50 in experiment [1] and in experiment [2] (setting [3]) were over 1 µM and 1 to 5 µM, respectively. For the same compound, the Emax in experiment [2] was in the range of 20 to 40%.
For the compound `O=C(O)[C@@H](Cc1cc2ccccc2[nH]1)Nc1nc(-c2cc(-c3ccon3)n(Cc3ccccc3F)n2)ncc1F` [Compound I-108], the EC50 was in the range of 0.101 to 1 µM in experiment [1] and 5 to 10 µM in experiment [2] (setting [4]).
Take `Fc1ccccc1Cn1nc(-c2ncc(F)c(N3CCc4ccccc4C3)n2)cc1-c1ccon1` [Compound I-111]: the EC50 in experiment [1] is under 0.1 µM; in experiment [2] (setting [4]), over 10 µM.
`O=C(O)[C@@]1(Nc2nc(-c3cc(-c4ccon4)n(Cc4ccccc4F)n3)ncc2F)CC2CC[C@H]1C2` [Compound I-114]: the EC50 in experiment [1] was over 1 µM; in experiment [2] (setting [3]), 1 to 5 µM. The Emax in experiment [2] was 40 to 60%.
In the case of `COc1ccc2c(c1)CCN(c1nc(-c3cc(-c4ccon4)n(Cc4ccccc4F)n3)ncc1F)C2C(=O)O` (stereo not drawn) [Compound I-126], the EC50 is under 0.1 µM in experiment [1] and 0.5 to 1 µM in experiment [2] (setting [4]).
For `O=C(O)C1c2ccc(O)cc2CCN1c1nc(-c2cc(-c3ccon3)n(Cc3ccccc3F)n2)ncc1F` (stereo not drawn) [Compound I-127] the same measures were over 1 µM and over 10 µM.
`O=C(O)C1(CNc2nc(-c3cc(-c4ccon4)n(Cc4ccccc4F)n3)ncc2F)CCCC1` [Compound I-129]: the values for the EC50 in experiment [1] and in experiment [2] (setting [4]) were under 0.1 µM and 0.1 to 0.5 µM, respectively.
For `O=C(O)C1CNCCN1c1nc(-c2cc(-c3ccon3)n(Cc3ccccc3F)n2)ncc1F` (stereo not drawn) [Compound I-133] the same measures were over 1 µM and over 10 µM.
For `COC(=O)N1CCN(c2nc(-c3cc(-c4ccon4)n(Cc4ccccc4F)n3)ncc2F)C(C(=O)O)C1` (stereo not drawn) [Compound I-135], the values for the concentration for a half-maximal effect (EC50) in experiment [1] and in experiment [2] (setting [4]) were over 1 µM and over 10 µM, respectively.
In the case of `O=C(O)C1(Nc2nc(-c3cc(-c4ccon4)n(Cc4ccccc4F)n3)ncc2F)CCCC1` [Compound I-138], the EC50 in experiment [1] was over 1 µM; in experiment [2] (setting [4]) it was 1 to 5 µM.
Turning to `O=C(O)C1CCc2ccccc2N1c1nc(-c2cc(-c3ccon3)n(Cc3ccccc3F)n2)ncc1F` (stereo not drawn) [Compound I-140], the values for the concentration giving a half-maximal response (EC50) in experiment [1] and in experiment [2] (setting [3]) were 0.101 to 1 µM and 1 to 5 µM, respectively. For the same compound, the maximum response (Emax) in experiment [2] is 80 to 100%.
On to `O=C(O)C1c2ccccc2CN1c1nc(-c2cc(-c3ccon3)n(Cc3ccccc3F)n2)ncc1F` (stereo not drawn) [Compound I-149], for which the EC50 in experiment [1] was over 1 µM; in experiment [2] (setting [4]), over 10 µM.
Regarding `O=C(O)[C@H](Cc1ccc(O)cc1)Nc1nc(-c2cc(-c3ccon3)n(Cc3ccccc3F)n2)ncc1F` [Compound I-159], the 50% effective concentration (EC50) in experiment [1] is over 1 µM; in experiment [2] (setting [4]), over 10 µM.
For `O=C(O)C1c2[nH]cnc2CCN1c1nc(-c2cc(-c3ccon3)n(Cc3ccccc3F)n2)ncc1F` (stereo not drawn) [Compound I-163] the same measures were over 1 µM and over 10 µM.
On to `O=C(O)C1(F)CCN(c2nc(-c3cc(-c4ccon4)n(Cc4ccccc4F)n3)ncc2F)CC1` [Compound I-188], for which the EC50 in experiment [1] is 0.101 to 1 µM; in experiment [2] (setting [4]), 1 to 5 µM.
For `CN(Cc1nn[nH]n1)c1nc(-c2cc(-c3ccon3)n(Cc3ccccc3F)n2)ncc1F` [Compound I-191], in that order: under 0.1 µM and over 10 µM.
Regarding `CS(=O)(=O)C1CCN(c2nc(C3=NC(Cc4ccccc4F)C(c4ccon4)=C3)ncc2F)C1` (stereo not drawn) [Compound I-192], the EC50 in experiment [1] was under 0.1 µM; in experiment [2] (setting [3]), 0.001 to 0.1 µM. In addition, the maximal response (Emax) in experiment [2] is over 120%.
With `O=C(O)[C@@H]1CCCC[C@H]1Nc1nc(-c2cc(-c3ccon3)n(Cc3ccccc3F)n2)ncc1F` [Compound I-198], the concentration giving a half-maximal response (EC50) in experiment [1] was under 0.1 µM; in experiment [2] (setting [3]), 0.001 to 0.1 µM. The Emax in experiment [2] was in the range of 40 to 60%.
For the compound `CC(C)N(CC(=O)O)c1nc(-c2cc(-c3ccon3)n(Cc3ccccc3F)n2)ncc1F` [Compound I-204], the EC50 was 0.101 to 1 µM in experiment [1] and over 10 µM in experiment [2] (setting [4]).
`O=C(O)C(F)(F)CNc1nc(-c2cc(-c3ccon3)n(Cc3ccccc3F)n2)ncc1F` [Compound I-206]: the EC50 in experiment [1] was under 0.1 µM; in experiment [2] (setting [4]), over 10 µM.
Consider `CS(=O)(=O)CCC(Nc1nc(-c2cc(-c3ccon3)n(CCC(F)(F)F)n2)ncc1F)C(F)(F)F` (stereo not drawn) [Compound I-626], for which the concentration for a half-maximal effect (EC50) in experiment [1] is over 1 µM.
`NC(=O)C(O)(CNc1ccnc(-c2cc(-c3ccon3)n(Cc3ccccc3F)n2)n1)C(F)(F)F` (stereo not drawn) [Compound I-627]: the concentration for a half-maximal effect (EC50) in experiment [1] was 0.101 to 1 µM.
Regarding `O=S1(=O)Cc2nc(-c3cc(-c4ccon4)n(Cc4ccccc4F)n3)nc(O)c2C1` [Compound I-628], the EC50 in experiment [1] was over 1 µM.
Consider `CN(c1nc(-c2cc(-c3ccon3)n(Cc3ccccc3F)n2)ncc1F)S(C)(=O)=O` [Compound I-629], for which the EC50 in experiment [1] is over 1 µM.
In the case of `COC(=O)N(C)c1cnc(-c2cc(-c3ccon3)n(Cc3ccccc3F)n2)nc1` [Compound I-630], the EC50 in experiment [1] was over 1 µM.
In the case of `Oc1n[nH]c2c1CN(c1nc(-c3cc(-c4ccon4)n(Cc4ccccc4F)n3)ncc1F)CC2` [Compound I-631], the half-maximal effective concentration (EC50) in experiment [1] was under 0.1 µM.
Turning to `Nc1nc(-c2cc(-c3ccon3)n(Cc3ccccc3F)n2)nc2c1CS(=O)(=O)C2` [Compound I-632], in experiment [1], the concentration giving a half-maximal response (EC50) was over 1 µM.
Consider `OCC1Cn2c(nnc2C(F)(F)F)CN1c1nc(-c2cc(-c3ccon3)n(Cc3ccccc3F)n2)ncc1F` (stereo not drawn) [Compound I-633], for which the concentration giving a half-maximal response (EC50) in experiment [1] is under 0.1 µM.
On to `CC(O)(CNc1nc(-c2cc(-c3ccon3)n(Cc3ccccc3F)n2)ncc1F)C(F)(F)F` (stereo not drawn) [Compound I-634], for which, in experiment [1], the half-maximal effective concentration (EC50) was under 0.1 µM.
